Test results as given in patent publication US20260248787A9, “MEDICAMENT FOR TREATING CANCER COMPRISING OPTICALLY ACTIVE AZABICYCLO RING DERIVATIVE” (Sumitomo Pharma Co., Ltd., priority 2023, published 2026).

Assay: Phase 1/2 first-in-human clinical study, safety evaluation (DLT, TEAE, SAE)
Settings: for SAE Differentiation syndrome, CTCAE Grade: Related
[1] = cut-off, 40-300 mg BID, unrelated to study drug
[2] = patient US053A-0001, 80 mg BID Arm A, Not related, Recovered/Resolved
[3] = patient US154A-0002, 40 mg BID Arm B, Not related, Not recovered/Not resolved
[4] = patient US154A-0004, 100 mg BID Arm A, Not related, Recovered/Resolved
[5] = patient US185A-0001, 100 mg BID Arm A, Not related, Not recovered/Not resolved
[6] = patient US185A-0006, 120 mg BID Arm A, Not related, Fatal

C=C1C[C@@H]2CC[C@H]1[C@@H](C(=O)N1CCC3(CC1)CN(c1ncncc1Oc1ccc(F)cc1C(=O)N(C(C)C)C(C)C)C3)N2 [the present compound, 5-fluoro-2-[(4-{7-[(1S,3S,4R)-5-methylidene-2-azabicyclo[2.2.2]octane-3-carbonyl]-2,7-diazaspiro[3.5]nonan-2-yl}pyrimidin-5-yl)oxy]-N,N-di(propan-2-yl)benzamide]
Non-hematological TEAE regardless of causality: COVID-19 (N=57, Grade ≥3): 3 (5.3%) n (%)
Non-hematological TEAE regardless of causality: Constipation (N=57, Grade ≥3): 1 (1.8%) n (%)
Non-hematological TEAE regardless of causality: Cough (N=57, Grade ≥3): 0 (0.0%) n (%)
Non-hematological TEAE regardless of causality: Decreased appetite (N=57, Grade ≥3): 2 (3.5%) n (%)
Non-hematological TEAE regardless of causality: Diarrhoea (N=57, Grade ≥3): 0 (0.0%) n (%)
Non-hematological TEAE regardless of causality: Dizziness (N=57, Grade ≥3): 0 (0.0%) n (%)
Non-hematological TEAE regardless of causality: Dysgeusia (N=57, Grade ≥3): 0 (0.0%) n (%)
Non-hematological TEAE regardless of causality: Dyspnoea (N=57, Grade ≥3): 3 (5.3%) n (%)
Non-hematological TEAE regardless of causality: Electrocardiogram QT prolonged (N=57, Grade ≥3): 2 (3.5%) n (%)
Non-hematological TEAE regardless of causality: Epistaxis (N=57, Grade ≥3): 1 (1.8%) n (%)
Non-hematological TEAE regardless of causality: Fatigue (N=57, Grade ≥3): 1 (1.8%) n (%)
Non-hematological TEAE regardless of causality: Haemorrhage intracranial (N=57, Grade ≥3): 4 (7.0%) n (%)
Non-hematological TEAE regardless of causality: Headache (N=57, Grade ≥3): 0 (0.0%) n (%)
Non-hematological TEAE regardless of causality: Hypertension (N=57, Grade ≥3): 3 (5.3%) n (%)
Non-hematological TEAE regardless of causality: Hypotension (N=57, Grade ≥3): 2 (3.5%) n (%)
Non-hematological TEAE regardless of causality: Muscular weakness (N=57, Grade ≥3): 2 (3.5%) n (%)
Non-hematological TEAE regardless of causality: Myalgia (N=57, Grade ≥3): 0 (0.0%) n (%)
Non-hematological TEAE regardless of causality: Nausea (N=57, Grade ≥3): 4 (7.0%) n (%)
Non-hematological TEAE regardless of causality: Oedema peripheral (N=57, Grade ≥3): 0 (0.0%) n (%)
Non-hematological TEAE regardless of causality: Pain in extremity (N=57, Grade ≥3): 1 (1.8%) n (%)
Non-hematological TEAE regardless of causality: Pneumonia (N=57, Grade ≥3): 10 (17.5%) n (%)
Non-hematological TEAE regardless of causality: Pyrexia (N=57, Grade ≥3): 0 (0.0%) n (%)
Non-hematological TEAE regardless of causality: Sepsis (N=57, Grade ≥3): 10 (17.5%) n (%)
Non-hematological TEAE regardless of causality: Stomatitis (N=57, Grade ≥3): 0 (0.0%) n (%)
Non-hematological TEAE regardless of causality: Vomiting (N=57, Grade ≥3): 3 (5.3%) n (%)
Non-hematological laboratory change regardless of causality: ALT increase (N=57, Grade ≥3): 0 (0.0%) n (%)
Non-hematological laboratory change regardless of causality: AST increase (N=57, Grade ≥3): 1 (1.8%) n (%)
Non-hematological laboratory change regardless of causality: Hypertriglyceridemia (N=57, Grade ≥3): 4 (7.0%) n (%)
Non-hematological laboratory change regardless of causality: Hypocalcemia (N=57, Grade ≥3): 2 (3.5%) n (%)
Non-hematological laboratory change regardless of causality: Hypokalemia (N=57, Grade ≥3): 10 (17.2%) n (%)
Non-hematological laboratory change regardless of causality: Hypomagnesemia (N=57, Grade ≥3): 1 (1.8%) n (%)
Non-hematological laboratory change regardless of causality: Hyponatremia (N=57, Grade ≥3): 0 (0.0%) n (%)
Non-hematological laboratory change regardless of causality: Hypophosphatemia (N=57, Grade ≥3): 11 (19.3%) n (%)
Treatment related adverse event: Nausea (N=57, Grade ≥3): 1 (1.8%) n (%)
Treatment related adverse event: Vomiting (N=57, Grade ≥3): 1 (1.8%) n (%)
TEAE in ≥20% of patients regardless of causality: Fatigue (Total N=43, 40-200 mg BID): 10 (23.3%) n (%)
TEAE in ≥20% of patients regardless of causality: Hypokalaemia (Total N=43, 40-200 mg BID): 9 (20.9%) n (%)
TEAE in ≥20% of patients regardless of causality: Nausea (Total N=43, 40-200 mg BID): 15 (34.9%) n (%)
TEAE in ≥20% of patients regardless of causality: Vomiting (Total N=43, 40-200 mg BID): 10 (23.3%) n (%)
TEAE related to the present compound in ≥2 patients: Decreased appetite (Total N=43, 40-200 mg BID): 3 (7.0%) n (%)
TEAE related to the present compound in ≥2 patients: Nausea (Total N=43, 40-200 mg BID): 3 (7.0%) n (%)
TEAE related to the present compound in ≥2 patients: Vomiting (Total N=43, 40-200 mg BID): 4 (9.3%) n (%)
Possible differentiation syndrome (DS) (cut-off, 40-300 mg BID): 3 pts
TEAE assessed as related: nausea (cut-off, 40-300 mg BID): 12.1%
TEAE assessed as related: vomiting (cut-off, 40-300 mg BID): 15.5%
mortality from DS (cut-off, 40-300 mg BID): no mortality
Grade >3 TEAE: anemia [1]: 13.8%
Grade >3 TEAE: febrile neutropenia [1]: 15.5%
Grade >3 TEAE: platelet count decrease [1]: 12.1%
Grade >3 TEAE: pneumonia [1]: 17.2%
Grade >3 TEAE: sepsis [1]: 15.5%
DLT (cut-off, any dose level of 40-300 mg BID): No DLT
patients with related asymptomatic Grade 3 QT prolongation (cut-off, in the presence of other QT prolonging drugs): One
DLT (n=81, 40 mg BID to 300 mg BID): no DLT
Grade 3 nausea and vomiting (n=81, 40-300 mg BID): 1 patient
TEAE assessed as related: nausea (n=81, 40-300 mg BID): 12.3%
TEAE assessed as related: vomiting (n=81, 40-300 mg BID): 14.8%
TEAE regardless of relationship: decreased appetite (n=81, 40-300 mg BID): 21.0%
TEAE regardless of relationship: diarrhea (n=81, 40-300 mg BID): 21.0%
TEAE regardless of relationship: febrile neutropenia (n=81, 40-300 mg BID): 22.2%
TEAE regardless of relationship: hypokalemia (n=81, 40-300 mg BID): 21.0%
TEAE regardless of relationship: nausea (n=81, 40-300 mg BID): 37.0%
TEAE regardless of relationship: vomiting (n=81, 40-300 mg BID): 29.6%
grade ≥3 QTc prolongation related to the compound (n=81, 40-300 mg BID): no reports
SAE Sepsis, CTCAE Grade (patient JP002A-0001, 40 mg BID Arm A, Not related, Not recovered/Not resolved): 3
SAE Malignant neoplasm progression, CTCAE Grade (patient JP002A-0003, 60 mg BID Arm B, Not related, Fatal): 5
SAE Disease progression, CTCAE Grade (patient JP007A-0002, 60 mg BID Arm B, Not related, Not recovered/Not resolved): 3
SAE Sepsis, CTCAE Grade (patient JP007A-0002, 60 mg BID Arm B, Not related, Recovered/Resolved): 4
SAE Pneumonia, CTCAE Grade (patient JP028A-0001, 40 mg BID Arm B, Not related, Fatal): 5
SAE Pneumonia, CTCAE Grade (patient JP028A-0001, 40 mg BID Arm B, Not related, Recovered/Resolved (one continuous event with the Grade 5)): 4
SAE Haemorrhage intracranial, CTCAE Grade (patient US053A-0001, 80 mg BID Arm A, Not related, Fatal): 5
SAE Atrial fibrillation, CTCAE Grade [2]: 3
SAE Pneumonia, CTCAE Grade [2]: 3
SAE Respiratory failure, CTCAE Grade [2]: 4
SAE Differentiation syndrome, CTCAE Grade (patient US053A-0001, 80 mg BID Arm A, Drug interrupted, Recovered/Resolved): 4
SAE Differentiation syndrome, CTCAE Grade (patient US053A-0001, 80 mg BID Arm A, action Not applicable, Recovered/Resolved): 3
SAE Pneumonia, CTCAE Grade (patient US053A-0002, 40 mg BID Arm B, Not related, Recovered/Resolved): 3
SAE Disease progression, CTCAE Grade (patient US154A-0001, 80 mg BID Arm A, Not related, Fatal): 5
SAE Disease progression, CTCAE Grade (patient US154A-0002, 40 mg BID Arm B, Not related, Fatal): 5
SAE Bone pain, CTCAE Grade [3]: 3
SAE Malaise, CTCAE Grade [3]: 3
SAE Pyrexia, CTCAE Grade [4]: 1
SAE Respiratory failure, CTCAE Grade [4]: 2
SAE Leukocytosis, CTCAE Grade (patient US154A-0004, 100 mg BID Arm A, Not related, Recovering/Resolving): 4
SAE Leukocytosis, CTCAE Grade (patient US158A-0002, 120 mg BID Arm A, Not related, Recovered/Resolved): 1
SAE Acute myeloid leukaemia, CTCAE Grade (patient US185A-0001, 100 mg BID Arm A, Not related, Fatal): 5
SAE Cerebrovascular accident, CTCAE Grade [5]: 4
SAE Haemorrhage intracranial, CTCAE Grade [5]: 2
SAE Electrocardiogram QT prolonged, CTCAE Grade (patient US185A-0001, 100 mg BID Arm A, Not related, Recovered/Resolved, hypomagnesaemia at the time): 3
SAE Febrile neutropenia, CTCAE Grade (patient US185A-0002, 40 mg BID Arm B, Not related, Recovered/Resolved): 3
SAE Sepsis, CTCAE Grade (patient US185A-0002, 40 mg BID Arm B, Not related, Recovering/Resolving): 3
SAE Lung infection (pneumonia), CTCAE Grade [6]: 5
SAE Multiple organ dys function syndrome, CTCAE Grade [6]: 5
SAE Sepsis, CTCAE Grade [6]: 5
SAE Pneumonia fungal, CTCAE Grade (patient US210A-0001, 80 mg BID Arm A, Not related, Fatal): 5
SAE Rectal haemorrhage, CTCAE Grade (patient US210A-0001, 80 mg BID Arm A, Not related, Recovered/Resolved): 4
SAE Cellulitis, CTCAE Grade (patient US210A-0002, 120 mg BID Arm A, Not related, Recovered/Resolved): 3
safety profile between Arm A and Arm B (without vs with azole antifungals): not different
